Consider 16 molecules from BindingDB's records for patent US20240287079 (Japan Tobacco, 2024).

The experiment deals with NACHT, LRR and PYD domains-containing protein 3 (Homo sapiens, UniProt Q96P20). Nature of the experiment: Evaluation of NLRP3 Inflammasome Inhibitory Activity Assay. As to the method: The NLRP3 inflammasome inhibitory activity of test compounds were evaluated on the basis of the inhibitory activity of the IL-1β production in THP1-Null cells (Product Number: thp-null, InvivoGen). […] The supernatant of the culture was removed, and thereto was added media for assay (25 μL/well) containing 1 μg/mL Lipopolysaccharides (Product Number: L2654, Sigma-Aldrich (registered trademark)). […] The supernatant of the culture was removed. […] A solution containing a test compound (20 μL/well) was added to test compound-setting wells. […] The supernatant of the culture was cryonically stored (set at −20° C.) until measurement of IL-1β.
NACHT, LRR and PYD domains-containing protein 3, sequence (Q96P20 whole entry, the tested form may be a part): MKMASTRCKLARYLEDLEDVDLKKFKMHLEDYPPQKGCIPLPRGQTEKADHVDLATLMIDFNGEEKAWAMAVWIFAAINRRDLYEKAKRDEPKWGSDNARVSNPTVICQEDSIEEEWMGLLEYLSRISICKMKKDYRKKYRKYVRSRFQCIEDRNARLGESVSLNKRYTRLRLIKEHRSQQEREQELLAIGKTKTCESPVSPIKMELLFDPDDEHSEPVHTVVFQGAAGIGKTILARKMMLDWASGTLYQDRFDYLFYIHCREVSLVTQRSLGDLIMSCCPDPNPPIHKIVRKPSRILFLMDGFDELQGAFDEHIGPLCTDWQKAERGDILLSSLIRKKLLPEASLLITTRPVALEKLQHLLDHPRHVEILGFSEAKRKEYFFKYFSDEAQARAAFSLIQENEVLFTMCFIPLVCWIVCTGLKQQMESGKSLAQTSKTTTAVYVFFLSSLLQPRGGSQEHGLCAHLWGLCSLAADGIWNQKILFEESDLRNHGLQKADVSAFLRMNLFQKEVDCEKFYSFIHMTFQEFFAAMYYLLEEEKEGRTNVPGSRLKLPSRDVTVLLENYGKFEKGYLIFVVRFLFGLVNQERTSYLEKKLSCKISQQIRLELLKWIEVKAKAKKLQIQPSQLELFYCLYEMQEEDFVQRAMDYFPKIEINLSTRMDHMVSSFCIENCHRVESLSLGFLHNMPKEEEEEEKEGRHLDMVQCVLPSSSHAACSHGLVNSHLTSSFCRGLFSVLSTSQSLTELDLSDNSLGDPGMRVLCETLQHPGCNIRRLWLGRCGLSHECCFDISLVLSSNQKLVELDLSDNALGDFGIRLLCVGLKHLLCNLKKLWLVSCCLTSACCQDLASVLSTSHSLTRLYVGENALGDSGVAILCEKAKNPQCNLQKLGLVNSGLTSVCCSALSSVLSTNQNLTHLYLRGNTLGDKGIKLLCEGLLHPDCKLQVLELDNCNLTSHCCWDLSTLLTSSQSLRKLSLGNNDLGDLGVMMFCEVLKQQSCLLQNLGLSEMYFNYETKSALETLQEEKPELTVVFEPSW
`COC1COCCN(c2nc3nn(-c4c(C)cc(Br)cc4C)cc3c(=O)[nH]2)C1` (stereo unspecified) [US20240287079, Example 216]: the IC50 (in general, the concentration needed to halve the response being measured) is 12 nM.

In turn, `CNc1nc2nn(-c3c(C)cc(Br)cc3C)cc2c(=O)n1C` [US20240287079, Example 247] came in with a 50% inhibitory concentration (IC50) of 260 nM.

Turning to `Cc1cc(Br)cc(C)c1-n1cc2c(=O)[nH]c(N3CC4CCC(C3)C4(F)F)nc2n1` [US20240287079, Example 239], the concentration for half-maximal inhibition (IC50) worked out at 11 nM.

As to `COC1(C)CN(c2nc3nn(-c4c(C)cc(Br)cc4C)cc3c(=O)n2C)C1` [US20240287079, Example 212], half-maximal inhibition (IC50) was put at 130 nM.

Regarding `Cc1cc(Br)cc(C)c1-n1cc2c(=O)[nH]c(N3CCOC4(COC4)C3)nc2n1` [US20240287079, Example 264], the IC50 came out at 32 nM.

With `CCC1COCCN1c1nc2nn(-c3c(C)cc(Br)cc3C)cc2c(=O)[nH]1` (stereo unspecified) [US20240287079, Example 248], the half-inhibitory concentration (IC50) worked out at 30 nM.

`Cc1cc(Br)cc(C)c1-n1cc2c(=O)[nH]c(N3CCC4CC43)nc2n1` (stereo unspecified) [US20240287079, Example 240] came in with an IC50 of 7.1 nM.

With `COC1(C)CN(c2nc3nn(-c4c(C)cc(Br)cc4C)cc3c(=O)[nH]2)C1` [US20240287079, Example 203], the IC50 was found to be 27 nM.

As for `Cc1cc(Br)cc(C)c1-n1cc2c(=O)[nH]c(N3C[C@@H](C)O[C@@H](C)C3)nc2n1` [US20240287079, Example 224], inhibition was half-maximal at 80 nM (IC50).

`Cc1cc(Br)cc(C)c1-n1cc2c(=O)[nH]c(N3CCO[C@H](C)C3)nc2n1` [US20240287079, Example 215] had an IC50 of 17 nM.

Take `Cc1cc(Br)cc(C)c1-n1cc2c(=O)[nH]c(N3C4CCC3CC(F)(F)C4)nc2n1` [US20240287079, Example 238]: half-maximal inhibition (IC50) required 110 nM.

The molecule `Cc1cc(Br)cc(C)c1-n1cc2c(=O)[nH]c(N3CCOC4(CC4)C3)nc2n1` [US20240287079, Example 225] showed an IC50 of 19 nM.

`Cc1cc(Br)cc(C)c1-n1cc2c(=O)[nH]c(N3CCOC[C@@H]3C)nc2n1` [US20240287079, Example 223] came in with an IC50 of 160 nM.

`Cc1cc(Br)cc(C)c1-n1cc2c(=O)[nH]c(N3CCOC[C@H]3C)nc2n1` [US20240287079, Example 213] returned an IC50 of 6.8 nM.

In turn, `Cc1cc(Br)cc(C)c1-n1cc2c(=O)[nH]c(N3CCO[C@@H](C)C3)nc2n1` [US20240287079, Example 214] returned an IC50 of 19 nM.

Take `Cc1cc(Br)cc(C)c1-n1cc2c(=O)[nH]c(N3CC4(COC4)C3)nc2n1` [US20240287079, Example 204]: the IC50 is 28 nM.
